Source: US7632819B1, “Methods and compositions for inhibiting PKC delta cleavage for treatment and prevention of neurodegeneration and apoptosis” (Iowa State University Research Foundation, Inc., priority 2004, dated 2009)
Like-named read-outs stand apart in the source and are kept apart here. The star is where a group is joined. Cbz = O=C(OCc1ccccc1)*; CH2F = FC*

What was measured:
[1] = system: N27 cells; conditions: for increase in DNA fragmentation compared to untreated cells: toxin alone
Description: […] Z is the abbreviation for N-benzyloxycarbonyl. Untreated cells were used as control samples. After the treatment, the cells were collected by trypsinization (Trypsin 0.25%, 1 mM EDTA), centrifuged at 200×g for 5 min, washed with PBS twice, then lysed. The lysate was used for DNA fragmentation assay.
DNA fragmentation assays were performed using a recently developed Cell Death Detection ELISA Plus Assay Kit. This is a fast, highly sensitive and reliable assay for the detection of early changes in apoptotic cell death. After treatments, 20 μl of cell lysate was processed according to the manufacturer's protocol. The assay solution consisted of a mixture of anti-histone biotin and anti-DNA-HRP directed against various histones and antibodies to both single stranded DNA and double stranded DNA, the major constituents of nucleosomes. After 2 hr incubation, unbound components were removed by washing with the incubation buffer supplied with the kit. Quantification of the nucleosomes retained by anti-DNA-HRP in the immunocomplex was determined spectrophotometrically with ABTS (2,2′-azino-di[3-ethoxybenzyl thiazoline sulfonate) as a HRP substrate (supplied with the kit). Measurements were made at 405 nm against an ABTS solution as a blank (reference wave length 490 nm).
(§1) Chemicals. Protease cocktail, ATP, protein-A-sepharose, protein-G-sepharose and anti-â-actin antibody were obtained from Sigma-Aldrich (St. Louis, Mo.); mouse tyrosine hydroxylase antibody was purchased from Chemicon (Temecula, Calif.); the rabbit polyclonal antibody for tyrosine hydroxylase was obtained from Calbiochem Bioscience, Inc. (King of Prussia, Pa.); rabbit PKCδ antibody was purchased from Santa Cruz Biotechnology, Inc. (Santa Cruz, Calif.); anti-rabbit and anti-mouse secondary antibodies and the ECL chemiluminescence kit were purchased from Amersham Pharmacia Biotech. (Piscataway, N.J.). Alexa 488 conjugated antirabbit/mouse, Cy3 conjugated anti-rabbit/mouse antibody and Hoechst 33342 were purchased from Molecular Probes, Inc. (Eugene, Oreg.). [ã-32P]ATP was purchased from Perkin Elmer Life Science Products (Boston, Mass.). The Bradford protein assay kit was purchased from Bio-Rad Laboratories (Hercules, Calif.). RPMI, fetal bovine serum, -glutamine, penicillin, and streptomycin were purchased from Invitrogen (Gaithersburg, Md.). Quantity One 4.2.0 software was purchased from Bio-Rad. Design and synthesis of z-DIPD-fmk (SEQ ID NO:5). To develop a cell permeable peptide inhibitor to specifically block PKCδ cleavage, we designed the tetrapeptide Asp-Ile-Pro-Asp (DIPD) (SEQ ID NO:5) corresponding to position 324-327 in rat PKCδ cDNA representing the caspase-3 cleavage site. Since this peptide is directed against the caspase-3 cleavage site of PKCδ, it should prevent the proteolytic cleavage and activation of PKCδ mediated by caspase-3. The custom synthesis of the tetrapeptide Z-Asp(OMe)-Ile-Pro-Asp(OMe)-FMK (SEQ ID NO:5) was performed at MP Biomedicals (Irvine, Calif.), a quality company that specializes in developing cell permeable peptide inhibitors directed against apoptosis cell signaling molecules. Briefly, the synthesis was performed with the reaction of Boc-D(OMe)-OH with MBFM (Magnesium benzyl fluoromalonate) to produce Beta-Keto fluoroester, followed by hydrogenation with Pd/c to produce Boc-D(OMe)FK, which was converted into Tfa salt using trifluoroacetic acid. Coupling of Tfa salt with Z-D(OMe)—I—P—OH in DMF with HOBT, HBTU DIEA and workup produced a crude product which was purified by column chromatography over silica gel. Elution with EtOAC:MeOH 95:5 gave pure fractions which were mixed and dried. Crystallization with EtOAC/Hexane, filtration and drying produced the pure product. Animals.

[2] = system: N27 mesencephalic neuronal cells; test: MTT cytotoxicity assay, MPP+- and 6-OHDA-induced cytotoxicity; conditions: N27 cells, 300 μM MPP+ 36 hr, toxin alone
Text: as §1, with “Briefly, the synthesis was performed with the reaction of Boc-D(OMe)-OH with MBFM (Magnesium benzyl fluoromalonate) to produce Beta-Keto fluoroester, followed by hydrogenation with Pd/c to produce Boc-D(OMe)FK, which was converted into Tfa salt using trifluoroacetic acid. Coupling of Tfa salt with Z-D(OMe)—I—P—OH in DMF with HOBT, HBTU DIEA and workup produced a crude product which was purified by column chromatography over silica gel. Elution with EtOAC:MeOH 95:5 gave pure fractions which were mixed and dried. Crystallization with EtOAC/Hexane, filtration and drying produced the pure product. Animals.” left out

[3] = target: T1, caspase-3 (Rattus norvegicus, UniProt P55213); test: Caspase-3 activity assay with fluorogenic substrate Ac-DEVD-AFC in treated N27 cells; assay type: cell-based; conditions: toxin alone
T1 construct: N27 cells were exposed to either MPP^+ or 6-OHDA in the absence or presence of z-DIPD-fmk; endogenous in cells; host or cells: N27 rat mesencephalic dopaminergic neuronal cells
T1 sequence (P55213 29-175 limits assumed): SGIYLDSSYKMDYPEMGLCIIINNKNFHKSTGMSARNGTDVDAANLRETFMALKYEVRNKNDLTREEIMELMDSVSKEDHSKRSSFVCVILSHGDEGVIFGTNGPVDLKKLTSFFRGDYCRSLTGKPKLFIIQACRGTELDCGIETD
T1 sequence (P55213 176-277 limits assumed): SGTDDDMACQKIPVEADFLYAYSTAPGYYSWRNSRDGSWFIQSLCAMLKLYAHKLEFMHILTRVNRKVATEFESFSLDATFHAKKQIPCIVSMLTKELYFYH
Text: as §1, with “Animals. Time-pregnant C57/bL mice were housed under standard conditions: constant temperature (22±1° C.), humidity (relative, 30%) and a 12-h light/dark cycle with free access to food and water. The animals and protocol procedures were approved and supervised by the Committee on Animal Care (COAC) at Iowa State University. Cell culture. Rat mesencephalic dopaminergic neuronal (N27) cells were cultured as described earlier (Anantharam et al., 2002). Briefly, cells were grown in RPMI 1640 medium containing 10% fetal bovine serum, 2 mM L-glutamine, 50 units of penicillin, and 50 μg/ml streptomycin. Cells were maintained in a humidified atmosphere of 5% CO2 at 37° C. Primary mesencephalic neuronal cultures were prepared from the ventral mesencephalon of gestational 18-day-old mice embryos as described previously (Yang et al., 2004). Mesencephalic tissues were dissected and maintained in ice-cold Ca2+-free HBSS and then dissociated in HBSS solution containing trypsin-EDTA (0.25%) for 20 min at 37° C. […]” for “Animals.”

[4] = system: PKCδ; test: Immunoprecipitation kinase assay (histone H1 phosphorylation) in N27 cells; assay type: cell-based, rat; conditions: toxin alone
Text: as §1, with “Animals. Time-pregnant C57/bL mice were housed under standard conditions: constant temperature (22±1° C.), humidity (relative, 30%) and a 12-h light/dark cycle with free access to food and water. The animals and protocol procedures were approved and supervised by the Committee on Animal Care (COAC) at Iowa State University. Cell culture. […]” for “Animals.”

[5] = MTT cytotoxicity assay, MPP+- and 6-OHDA-induced cytotoxicity; conditions: rat
Text: as §1, with “Briefly, the synthesis was performed with the reaction of Boc-D(OMe)-OH with MBFM (Magnesium benzyl fluoromalonate) to produce Beta-Keto fluoroester, followed by hydrogenation with Pd/c to produce Boc-D(OMe)FK, which was converted into Tfa salt using trifluoroacetic acid. Coupling of Tfa salt with Z-D(OMe)—I—P—OH in DMF with HOBT, HBTU DIEA and workup produced a crude product which was purified by column chromatography over silica gel. Elution with EtOAC:MeOH 95:5 gave pure fractions which were mixed and dried. Crystallization with EtOAC/Hexane, filtration and drying produced the pure product. Animals.” left out

[6] = target: T2, caspase-3 (rat, UniProt P55213 29-277, limits assumed); test: cell-based or functional assay
T2 sequence (looked up): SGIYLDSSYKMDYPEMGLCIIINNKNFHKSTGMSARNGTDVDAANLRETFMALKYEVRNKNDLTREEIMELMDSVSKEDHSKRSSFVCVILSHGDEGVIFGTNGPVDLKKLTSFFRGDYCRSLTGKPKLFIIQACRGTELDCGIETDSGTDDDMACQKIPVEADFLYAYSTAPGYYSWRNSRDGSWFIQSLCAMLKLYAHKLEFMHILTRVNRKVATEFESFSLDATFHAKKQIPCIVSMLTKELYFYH

## C[n+]1ccc(-c2ccccc2)cc1 [MPP^+, 1-methyl-4-phenylpyridinium, reference compound]
[1]; 300 μM MPP+ 36 hr
  increase in DNA fragmentation compared to untreated cells: 75%
[2]
  loss of cell viability (MTT): more than 40%
[3]; 300 μM MPP+ 36 hr
  increase in caspase-3 enzyme activity: ~2.5 fold
[4]; 300 μM MPP+ 36 hr
  increase in PKCδ enzymatic activity over the untreated cells: 333%

## COC(=O)CC[C@H](NC(=O)[C@H](CC(=O)OC)NC(=O)OCc1ccccc1)C(=O)N[C@H](C(=O)N[C@@H](CC(=O)OC)C(=O)CF)C(C)C [z-DEVD-fmk, Asp-Glu-Val-Asp-FMK, reference compound]
[1]; 100 μM 6-OHDA 24 hr, concentration not stated or dose-response 1-50 μM
  effect on 6-OHDA-induced DNA fragmentation / apoptotic cell death: dose dependently blocked
[1]; read-out: IC50, 6-OHDA-induced DNA fragmentation (apoptotic cell death), 100 μM 6-OHDA 24 hr, inhibitor 1-50 μM
  IC50: 18 µM

## NCCc1cc(O)c(O)cc1O [6-OHDA, 6-hydroxydopamine, reference compound]
[1]; 100 μM 6-OHDA 24 hr
  increase in DNA fragmentation compared to untreated cells: 93%
[5]
  cytotoxicity at 24 h, 100 μM: > 60%
[3]; 100 μM 6-OHDA 24 hr
  increase in caspase-3 enzyme activity: ~2.5 fold
[4]; 100 μM 6-OHDA 24 hr
  increase in PKCδ enzymatic activity over the untreated cells: 235%

B1: Z-Asp(OMe)-Ile-Pro-Asp(OMe)-FMK (N-benzyloxycarbonyl-Asp(OMe)-Ile-Pro-Asp(OMe)-fluoromethyl ketone) (peptide)
peptide: Cbz-D(OMe)IPD(OMe)-CH2F
SMILES: CC[C@H](C)[C@H](NC(=O)[C@H](CC(=O)OC)NC(=O)OCc1ccccc1)C(=O)N1CCC[C@H]1C(=O)N[C@@H](CC(=O)OC)C(=O)CF
[6]
  IC50 for inhibition of 6-OHDA-induced DNA fragmentation (Cell Death Detection ELISA) in N27 cells: 6 µM

B2: z-DEVD-fmk (Asp-Glu-Val-Asp-FMK) (peptide)
peptide: Cbz-DEVD-CH2F
SMILES: CC(C)[C@H](NC(=O)[C@H](CCC(=O)O)NC(=O)[C@H](CC(=O)O)NC(=O)OCc1ccccc1)C(=O)N[C@@H](CC(=O)O)C(=O)CF
[6]
  IC50 for inhibition of 6-OHDA-induced DNA fragmentation (Cell Death Detection ELISA) in N27 cells: 18 µM
